Assay results as given in PMC3404088, “Development of a Small D-Enantiomeric Alzheimer’s Amyloid-β Binding Peptide Ligand for Future In Vivo Imaging Applications” (PLoS ONE, 2012).
Square brackets hold non-standard residues; d marks the D form. Peptide text beside a SMILES is read from it. * marks the point of attachment. 5FAM = O=C1OC2(c3ccc(O)cc3Oc3cc(O)ccc32)c2ccc(C(=O)*)cc21

Columns and labels:
Aβ1–42 monomers = target: T1, Aβ1–42 monomers (Homo sapiens, UniProt P05067); assay: ELISA, compound binding to Aβ1–42 peptide film (predominantly monomers); settings: 10 µg/ml compound; for binding value, binding Aβ1–42 monomers: optical density after pNPP incubation
T1 construct: Aβ1–42 peptide film was prepared from lyophilized powder (Bachem); purchased Bachem
Protocol: (§1) Aβ1–42 peptide film was prepared from lyophilized powder (Bachem). The powder was reconstituted in HFIP to a final concentration of 1 mM, sonicated for 15 min at room temperature (RT), agitated overnight (ON), and aliquoted into non-siliconized microcentrifuge tubes (12 µl corresponding to 55 µg). The HFIP was evaporated under a stream of argon. The resulting peptide film was vacuum dried for 10 min and stored at -80°C. For direct use as peptide film, an aliquot of Aβ1–42 peptide film was reconstituted with 0.54% dimethylsulphoxide (DMSO) in phosphate buffered saline (PBS) to obtain a final concentration of 10 µg/ml and then used for the ELISA as described below. To prepare fibrils, 55 µg aliquot of peptide film was dissolved in 55 µl of 50 mM Tris-HCl, pH 7.4 and incubated at 37°C for five days. Next, the sample was centrifuged (10’000 rpm for 5 min) and the pellet was diluted in 50 mM Tris-HCl, pH 7.4.
(§2) Aβ1–42 peptide preparations were diluted in 0.05 M bicarbonate-carbonate buffer pH 9.6, to the final concentration of 10 µg/ml and coated onto ELISA plates (MaxiSorp, Nunc). After blocking (PBS; 0.05% Tween; 1% BSA), plates were incubated with 2- or 3-fold dilutions of D-compounds (starting concentration: 10 µg/ml) and incubated for 2 h at 37°C. Plates were then washed and incubated for 2 h at 37°C with the detection antibody Rabbit-a-fluorescein isothiocyanate-AP (Sigma; 1∶10’000 dilution) followed by the incubation for 2.5 h at room temperature (RT) with 1 mg/ml of phosphatase substrate (pNPP, Sigma). The absorbance signal was read at 405 nm wavelength using a Tecan plate reader (Tecan Group Lt, Männedorf, Switzerland).
(§3) ELISA plates (MaxiSorp, Nunc) were coated with anti-Aβ antibody 6E10 (Covance) at a concentration of 5 µg/ml. Either monomeric Aβ1–42 peptide film (mainly monomeric) or Aβ1–42 fibrils, which were prepared as described above, were diluted in PBS to the final concentration 10 µg/ml and mixed with 10-fold dilutions of D-peptide compounds in Eppendorf tubes (starting concentration of D-peptide compounds: 10 µg/ml). The tubes were incubated for 2 h at 37°C. Next, samples were distributed onto the ELISA plate and kept for 2 h at 37°C. Plates were washed and incubated for 2 h at 37°C with the detection antibody Rabbit-a-fluorescein isothiocyanate-AP (Sigma; 1∶10′000 dilution) following the incubation overnight (ON) at RT with 1 mg/ml of phosphatase substrate (pNPP, Sigma). The absorbance signal was read at 405 nm wavelength using the Tecan plate reader (Tecan Group Ltd, Männedorf, Switzerland).
(§4) To verify the SPR results, ELISA was employed to assay the interaction of the ACI-80 derivatives ACI-80-Kϕ, ACI-81-Kϕ, ACI-82-Kϕ, ACI-83-Kϕ, ACI-84-Kϕ, ACI-85-Kϕ, ACI-86-Kϕ, ACI-87-Kϕ, [^19F]-ACI-87-Kϕ, ACI-88-Kϕ, [^19F]-ACI-88-Kϕ, ACI-89-Kϕ, [^19F]-ACI-89-Kϕ) with Aβ1–42 fibrils and Aβ peptide film in solution containing mostly monomers and smaller oligomers (Table 4). To avoid any bias by possible conformational influences the ELISA has been carried out in two versions, once with immobilized antibody and once with immobilized Aβ1–42 as described in the methods section. Both assays yielded similar results and confirmed each other. […] Panels A and B in Figure 2 show the results for binding to Aβ1–42 fibrils and panels C and D in Figure 2 show the results for binding to freshly prepared Aβ1–42 peptide film, which contains mostly monomeric Aβ. In Table 4, the performance of the peptides is expressed relative to that of ACI-80-Kϕ.

Aβ1–42 fibrils [1] = target: T2, Aβ1–42 fibrils (Homo sapiens, UniProt P05067); assay: ELISA, compound binding to Aβ1–42 fibrils; settings: for binding value, binding Aβ1–42 fibrils: optical density after pNPP incubation
T2 construct: Aβ1–42 was dissolved in hexafluoroisopropanol (HFIP)
Protocol: as §1, §2, §3, §4

[2] = target: T3, Aβ plaques in brain sections of transgenic APP (V717I) x PS1 (A246E) mice (Homo sapiens, UniProt P05067); assay: Ex vivo staining of mouse brain slices by FITC labeled compounds
T3 construct: triple image overlay of respective stains reveal that the ϕ-compounds identify plaques; from tissue; host or cells: brain cryosections of APP (V717I) x PS1 (A246E) transgenic mice
Protocol: In vitro tissue section staining was performed according to previously described protocols with slight modifications. Mouse brains were obtained from male transgenic (tg) APP (London mutation V717l) x PS1 (A246E) mice aged 13–21 months and from female wild type (wt) mice aged 9–10 months. The mice were anesthetized and transcardially perfused with saline. The brains were removed and snap frozen. 10 µm thick sagittal cryostat sections through the whole mouse brain were produced and mounted onto glass slides. ϕ-labeled compounds were applied to investigate binding. Thus, the slides were thawed, washed in PBS and fixed in 4% paraformaldehyde (20 min at RT) just before incubation with ϕ-labeled compounds. One series of sections was treated only with fluorescent compounds (0.01 mg/ml, incubation time 2 h) while another series of sections were incubated with anti-Aβ antibody 6E10 at 1∶500 dilution (SIG-39320, Covance; final antibody concentration was 2 µg/ml) in addition to ϕ-labeled compounds (0.01 mg/ml). The slices were washed in PBS. The sections incubated with ϕ-labeled compound and 6E10 antibody were further incubated for 2 h at RT with Goat-anti-Mouse IgG1– AlexaFluor 555 (A21127, Invitrogen, 1∶1000 dilution) and washed with PBS. Finally, all sections were counterstained with 4’–6-Diamidino-2-phenylindole (DAPI, 32670, Sigma, incubation 5 min at RT) for the visualization of cell nuclei. The slides were mounted using Prolong Gold Antifade mounting medium (P36930, Invitrogen) and coverslipped.
The tissues were analyzed using a fluorescent Zeiss Axioscope 2 Plus microscope using the AxioVision 4 image analysis software.
A further series of slices was stained using a primary anti-fluorescein isothiocyanate antibody combined with alkaline phosphatase reaction for visualization of ϕ-labeled peptides. Briefly, the sections were treated with blocking solution (10% normal goat serum (NGS), 0.25% Triton X-100 in PBS for 1 h at RT) and incubated with primary antibody (rabbit-anti-FITC; Invitrogen) at a dilution of 1∶500. The sections were then washed and incubated for 2 h at RT with the secondary antibody goat-anti-rabbit-alkaline phosphatase (Sigma) at a dilution of 1∶100. After washing, the slides were incubated with BCIP/NBT substrate (Sigma) for 3 min, washed, dehydrated and mounted using Eukitt mounting medium.

[3] = Analysis of ACI-80 stability: N-terminal glutamine vs pyroglutamate content by HPLC/ESI-MS; type: physicochemical; settings: solid, freshly synthesized and untreated, HPLC/ESI-MS
Protocol: In solution, N-terminal glutamine peptides such as D1 are prone to convert into N-terminal pyroglutamate species: Gln-SHYRHISPAQV → Pyr-SHYRHISPAQV. Therefore, the stability of solid ACI-80, solid ACI-80-Kϕ (ϕ: fluorescein isothiocyanate, covalently linked to the peptide via a lysine (K)) and [^127I]-ACI-80 in solution was investigated by JPT Peptide Technologies GmbH, Berlin, Germany using HPLC/ESI-MS whereby the relative content of N-terminal Gln peptide and N-terminal Pyr peptide was assessed.
An important observation during initial compound stability characterization experiments was the partial conversion of the N-terminal glutamine of [^127I]-ACI-80 into pyro-glutamate. It is known that peptides with an N-terminal glutamine are prone to conversion of this residue into a pyroglutamate. Therefore, the composition of freshly synthesized and untreated ACI-80 and ACI-80-Kϕ as well as [^127I]-ACI-80 after iodination were investigated. […] It was observed that freshly synthesized ACI-80 and ACI-80-Kϕ contained only minor fractions of pyroglutamic acid while about one third of [^127I]-ACI-80 in solution already converted into N-terminal pyroglutamate species.

Aβ1–42 fibrils [4] = target: T2, Aβ1–42 fibrils; assay: SPR single cycle experiments (Biacore T100), heterogeneous ligand model; type: binding; parameters: Rmax1 / Rmax2 / k off2: unit not given here; settings: PBS pH 7.4, 25°C, 30 µl/min
Protocol: Aβ1–42 fibrils were prepared as described above. Thereafter, the sample was centrifuged for 10 min at 16000×g, the supernatant discarded and this procedure repeated for 3 times. Formation of fibrils was confirmed by a standard Thioflavin-T fluorescence assay. Aβ1–42 fibrils were covalently immobilized on a CM5 sensor chip via amine coupling. Prior to immobilization of Aβ1–42 fibrils the sample was centrifuged and fibrils resuspended in 10 mM sodium acetate buffer pH 4.0. Flow cell sensor surfaces were activated with a freshly prepared solution of 0.2 M 1-ethyl–3-(3-dimethylaminopropyl)-carbodiimide (EDC) and 0.05 M N-hydroxysuccinimide (NHS) at a constant flow rate of 10 µl/min for 420 s. Aβ1–42 fibrils (∼ 110 µM monomeric Aβ1–42) were injected for 600 s with a flow rate of 10 µl/min. Deactivation of the surface was performed by injection of 1 M ethanolamine-HCl pH 8.5 at the same flow rate and duration as in the activation step. In the reference cells the deactivation step was performed directly after the activation step. All SPR experiments were performed on a Biacore T100 system with series S CM5 sensor chips at 25°C. The system was run with the Biacore T100 Control Software Version 1.1.1. PBS (10 mM sodium phosphate buffer pH 7.4, 137 mM NaCl, 2.7 mM KCl) was chosen as running buffer (as previously during fibril formation) in order to minimize alterations of fibril organization. All buffers were sterile filtered (0.22 µm). After each docking of a sensor chip the detector was normalized with BIAnormalizing solution (70% glycerol, GE Healthcare) to compensate for slight differences in detector responses of individual sensor chips. For all interaction analyses the Type 1 reagent rack was used. Siliconized sample vials were used with their corresponding rubber caps (Type 2, GE Healthcare) to minimize evaporation effects. Throughout all runs the flow rate was set to 30 µl/min. All interaction studies were performed in single-cycle mode. Here, five different concentrations of analyte were passed through a reference cell and subsequently through flow cells with immobilized ligand within the same binding cycle for 60 seconds, starting with the lowest concentration. Successive injections were performed in the order of increasing concentrations. Each following concentration was a fivefold increase of the previous. The lowest analyte concentration was chosen to be 100 nM and therefore the following were 500, 2500, 12500 and 62500 nM. Biacore data were evaluated using BiaEvaluation 4.1.1 (GE Healthcare) and Biacore T100 Evaluation Software (GE Healthcare). Obtained binding data with compounds were double referenced. This was achieved by collecting the data in dual-channel mode with a reference flow cell connected upstream of the flow cell with immobilized Aβ1–42 fibrils and the subtraction of the obtained binding responses with a blank buffer injection (PBS).

[5] = average of two or three experiments
[6] = 10 µg/ml compound, average of two or three experiments

ZSFYRHISPAQVKϕ [ACI-84-Kϕ, ϕ-labeled ACI-80 derivative, Q1Z and H3F]
% binding relative to ACI-80-Kϕ, Aβ1–42 monomers (Aβ1–42 monomers; ACI-80-Kϕ = 100): 63% | binding value, binding Aβ1–42 monomers (Aβ1–42 monomers; [5]): 0.31 | ELISA binding to Aβ1–42 (Aβ1–42 fibrils [1]): reduced | % binding relative to ACI-80-Kϕ, Aβ1–42 fibrils (Aβ1–42 fibrils [1]; 10 µg/ml compound, ACI-80-Kϕ = 100): 64% | binding value, binding Aβ1–42 fibrils (Aβ1–42 fibrils [1]; [6]): 0.58

PSHYRHISPAQKK[^19F]ϕ [[^19F]-ACI-89-Kϕ, fluorinated ϕ-labeled ACI-89]
binding value, binding Aβ1–42 monomers (Aβ1–42 monomers; value of one single experiment only): *1.19 | ELISA binding to Aβ1–42 (Aβ1–42 fibrils [1]): bound well to Aβ1–42 fibrils | binding value, binding Aβ1–42 fibrils (Aβ1–42 fibrils [1]; 10 µg/ml compound, value of one single experiment only): *1.86 | staining / recognition of Aβ plaques ([2]; 0.01 mg/ml ϕ-labeled compound, 2 h, 10 µm cryostat sections, fluorescence microscopy): readily recognized amyloid plaques | overlay with 6E10 anti-Aβ staining ([2]; co-staining with 6E10 (2 µg/ml) and DAPI, triple overlay): good overlap with 6E10 Aβ staining | staining pattern ([2]; fluorescence microscopy): more diffuse and comparable to the staining of 6E10 Aβ antibody

CC[C@@H](C)[C@@H](NC(=O)[C@@H](Cc1c[nH]cn1)NC(=O)[C@@H](CCCNC(=N)N)NC(=O)[C@@H](Cc1ccc(O)cc1)NC(=O)[C@@H](Cc1c[nH]cn1)NC(=O)[C@@H](CO)NC(=O)[C@H](N)CCC(N)=O)C(=O)N[C@H](CO)C(=O)N1CCC[C@@H]1C(=O)N[C@H](C)C(=O)N[C@H](CCC(N)=O)C(=O)N[C@@H](C(=O)N[C@H](CCCCNC(=O)c1ccc2c(c1)C(=O)OC21c2ccc(O)cc2Oc2cc(O)ccc21)C(=O)O)C(C)C [ACI-80-Kϕ] (H-[dQ][dS][dH][dY][dR][dH][dI][dS][dP][dA][dQ][dV][dK](5FAM)-OH; C-terminus assumed)
Identified amino acid at the N-terminal position: glutamine ([3]; relative content of N-terminal Gln peptide): >94.4% | Identified amino acid at the N-terminal position: pyroglutamate ([3]; relative content of N-terminal Pyr peptide): <5.6% | binding value, binding Aβ1–42 monomers (Aβ1–42 monomers; [5]): 0.49 | binding value, binding Aβ1–42 fibrils (Aβ1–42 fibrils [1]; [6]): 0.90 | Rmax2 (Aβ1–42 fibrils [4]): 43.7 | k off1 (Aβ1–42 fibrils [4]): 0.0252 | k off2 (Aβ1–42 fibrils [4]): 1.58 | k on1 (Aβ1–42 fibrils [4]): 469 | k on2 (Aβ1–42 fibrils [4]): 1.37e4 | Rmax1 (Aβ1–42 fibrils [4]; global fit of three lowest responding concentrations): 12.2
